Patent US10030047B2 (Hoffmann-La Roche Inc., priority 2015, dated 2018)
Values after ≈ are worked out from the molar mass of the structure shown.

What follows are compounds tested on A. baumannii strain ATCC19606 (assay: Minimum inhibitory concentration (MIC) determination, microbroth dilution (CLSI)). Conditions: Acinetobacter baumannii, ATCC19606, 20 h, read-out: ATCC19606 MIC.
Assay type: cell-based
Experimental: The in vitro antimicrobial activity of the compounds was determined through microbroth minimum inhibitory concentration (MIC) methodology performed according to the Clinical and Laboratory Standard Institute guidelines (CLSI—M07-A9 Jan. 2012. Methods for Dilution Antimicrobial Susceptibility Tests for Bacteria That Grow Aerobically; Approved Standard—Ninth Edition, Clinical and Laboratory Standards Institute, Wayne/PA, US and the CLSI—M100-S24 Jan. 2014. Performance Standards for Antimicrobial Susceptibility Testing; Approved Standard—Fourth Informational Supplement, Clinical and Laboratory Standards Institute, Wayne/PA, US).
The compound stock solution was freshly prepared at 10× the required top concentration for the MIC determination, i.e. at 1280 mg/L, by reconstitution of the dry compound in 50:50 water:DMSO.
Polystyrene non-treated 96 wells microtiter plates were used for preparing panel containing compound serial twofold diluted at two times the final testing concentration (e.g. range from 64 to 0.06 μg/ml) in cation adjusted Mueller Hinton broth medium (CAMHB).
Inoculum was prepared by the “direct colony suspension method”. Colonies of A. baumannii ATCC19606 or clinical isolates were suspended in saline solution and adjusted to 0.5 McFarland, diluted 100 times in CAMHB broth and 50 μl added to each well (final concentration of cells ˜5×10^(5) CFU/ml and Final volume/well of 100 μl). Microtiter plates were sealed and incubated at 35±2° C.
MICs values were read after 20 hours of incubation and recorded as the lowest concentration of the antimicrobial that inhibits more or equal to 80% of growth of the organism as detected by the unaided eye and using a microtiter plate optical density reader (OD 600 nm).
Tables 2, 3, 4 and 5 provide the minimum inhibitory concentration (MIC) in microgram per milliliter of the compounds of present invention obtained against the A. baumannii strain ATCC19606 (Tables 2, 3, 4 and 5).

SMILES	MIC [µg/mL]
CN1C(=O)[C@H](CCCCN)NC(=O)[C@H](CCCN)NCc2cccnc2Sc2c(Cl)ccc(Cl)c2CNC(=O)[C@@H]1Cc1c[nH]c2ccccc12 [Example 38, (11S,14S,17S)-14-(4-Amino-butyl)-11-(3-amino-propyl)-22,25-dichloro-17-(1H-indol-3-ylmethyl)-16-methyl-2-thia-4,10,13,16,19-pentaaza-tricyclo[19.4.0.0*3,8*]pentacosa-1(25),3(8),4,6,21,23-hexaene-12,15,18-trione]	0.5 (≈ 0.676 µM)

Same assay, conditions: Acinetobacter baumannii; A. baumannii ATCC19606; CAMHB; read after 20 hours; >=80% growth inhibition; read-out: ATCC19606 MIC

SMILES	MIC [µg/mL]
CN1C(=O)[C@H](CCCCN)NC(=O)[C@H](CCCN)NCc2cccnc2Sc2ccc(Cl)c(Cl)c2CNC(=O)[C@@H]1Cc1c[nH]c2ccccc12 [Example 37, (11S,14S,17S)-14-(4-Amino-butyl)-11-(3-amino-propyl)-22,23-dichloro-17-(1H-indol-3-ylmethyl)-16-methyl-2-thia-4,10,13,16,19-pentaaza-tricyclo[19.4.0.0*3,8*]pentacosa-1(25),3,5,7,21,23-hexaene-12,15,18-trione]	2 (≈ 2.7 µM)
CN1C(=O)[C@H](CCCCN)NC(=O)[C@H](CCCN)NCc2cccnc2Sc2c(Cl)ccc(C(F)(F)F)c2CNC(=O)[C@@H]1Cc1c[nH]c2ccccc12 [Example 39, (11S,14S,17S)-14-(4-Amino-butyl)-11-(3-amino-propyl)-25-chloro-17-(1H-indol-3-ylmethyl)-16-methyl-22-trifluoromethyl-2-thia-4,10,13,16,19-pentaaza-tricyclo[19.4.0.0*3,8*]pentacosa-1(25),3,5,7,21,23-hexaene-12,15,18-trione]	0.5 (≈ 0.647 µM)
CN1C(=O)[C@H](CCCCN)NC(=O)[C@H](CCCN)NCc2cccnc2Sc2c(F)ccc(F)c2CNC(=O)[C@@H]1Cc1c[nH]c2ccccc12 [Example 40, (11S,14S,17S)-14-(4-Amino-butyl)-1-(3-amino-propyl)-22,25-difluoro-17-(1H-indol-3-ylmethyl)-16-methyl-2-thia-4,10,13,16,19-pentaaza-tricyclo[19.4.0.0*3,8*]pentacosa-1(25),3(8),4,6,21,23-hexaene-12,15,18-trione]	0.5 (≈ 0.707 µM)
Cc1cc(Cl)c2c(c1)CNC(=O)[C@H](Cc1c[nH]c3ccccc13)N(C)C(=O)[C@H](CCCCN)NC(=O)[C@H](CCCN)NCc1ccccc1S2 [Example 41, (12S,15S,18S)-15-(4-Amino-butyl)-18-(3-amino-propyl)-4-chloro-12-(1H-indol-3-ylmethyl)-6,13-dimethyl-2-thia-10,13,16,19-tetraaza-tricyclo[19.4.0.0*3,8*]pentacosa-1(25),3,5,7,21,23-hexaene-11,14,17-trione]	0.5 (≈ 0.696 µM)
CN1C(=O)[C@H](CCCCN)NC(=O)[C@H](CCCN)NCc2ccccc2Sc2c(Cl)cc(Cl)cc2CNC(=O)[C@@H]1Cc1c[nH]c2ccccc12 [Example 42, (12S,15S,18S)-15-(4-Amino-butyl)-18-(3-amino-propyl)-4,6-dichloro-12-(1H-indol-3-ylmethyl)-13-methyl-2-thia-10,13,16,19-tetraaza-tricyclo[19.4.0.0*3,8*]pentacosa-1(25),3,5,7,21,23-hexaene-11,14,17-trione]	1 (≈ 1.35 µM)
CCN1C(=O)[C@H](CCCCN)NC(=O)[C@H](CCCN)NCc2ccccc2Sc2ccc(Cl)cc2CNC(=O)[C@@H]1Cc1c[nH]c2ccccc12 [Example 43, (12S,15S,18S)-15-(4-Amino-butyl)-18-(3-amino-propyl)-6-chloro-13-ethyl-12-(1H-indol-3-ylmethyl)-2-thia-10,13,16,19-tetraaza-tricyclo[19.4.0.0*3,8*]pentacosa-1(21),3,5,7,22,24-hexaene-11,14,17-trione]	1 (≈ 1.39 µM)
CCN1C(=O)[C@H](CCCCN)NC(=O)[C@H](CCCN)NCc2ccccc2Sc2ccc(OC)cc2CNC(=O)[C@@H]1Cc1c[nH]c2ccccc12 [Example 44, (12S,15S,18S)-15-(4-Amino-butyl)-18-(3-amino-propyl)-13-ethyl-12-(1H-indol-3-ylmethyl)-6-methoxy-2-thia-10,13,16,19-tetraaza-tricyclo[19.4.0.0*3,8*]pentacosa-1(21),3,5,7,22,24-hexaene-11,14,17-trione]	0.5 (≈ 0.7 µM)
CCN1C(=O)[C@H](CCCCN)NC(=O)[C@H](CCCN)NCc2ccccc2Sc2c(Cl)cccc2CNC(=O)[C@@H]1Cc1c[nH]c2ccccc12 [Example 45, (12S,15S,18S)-15-(4-Amino-butyl)-18-(3-amino-propyl)-4-chloro-13-ethyl-12-(1H-indol-3-ylmethyl)-2-thia-10,13,16,19-tetraaza-tricyclo[19.4.0.0*3,8*]pentacosa-1(21),3,5,7,22,24-hexaene-11,14,17-trione]	0.5 (≈ 0.696 µM)
CCN1C(=O)[C@H](CCCCN)NC(=O)[C@H](CCCN)NCc2ccccc2Sc2c(C)cccc2CNC(=O)[C@@H]1Cc1c[nH]c2ccccc12 [Example 46, (12S,15S,18S)-15-(4-Amino-butyl)-18-(3-amino-propyl)-13-ethyl-12-(1H-indol-3-ylmethyl)-4-methyl-2-thia-10,13,16,19-tetraaza-tricyclo[19.4.0.0*3,8*]pentacosa-1(21),3,5,7,22,24-hexaene-11,14,17-trione]	1 (≈ 1.43 µM)
CN1C(=O)[C@H](CCCCN)NC(=O)[C@H](CCCN)NCc2ccccc2Sc2ccc(F)cc2CNC(=O)[C@@H]1Cc1c[nH]c2ccccc12 [Example 47, (12S,15S,18S)-15-(4-Amino-butyl)-18-(3-amino-propyl)-6-fluoro-12-(1H-indol-3-ylmethyl)-13-methyl-2-thia-10,13,16,19-tetraaza-tricyclo[19.4.0.0*3,8*]pentacosa-1(25),3,5,7,21,23-hexaene-11,14,17-trione]	4 (≈ 5.81 µM)
CNCCCC[C@@H]1NCc2ccccc2Sc2c(Cl)cccc2CNC(=O)[C@H](Cc2c[nH]c3ccccc23)N(C)C(=O)[C@H](CCCCN)NC1=O [Example 48, (12S,15S,18S)-15-(4-Amino-butyl)-4-chloro-12-(1H-indol-3-ylmethyl)-13-methyl-18-(4-methylamino-butyl)-2-thia-10,13,16,19-tetraaza-tricyclo[19.4.0.0*3,8*]pentacosa-1(21),3,5,7,22,24-hexaene-11,14,17-trione]	2 (≈ 2.73 µM)
COc1cc(Cl)c2c(c1)CNC(=O)[C@H](Cc1c[nH]c3ccccc13)N(C)C(=O)[C@H](CCCCN)NC(=O)[C@H](CCCN)NCc1ccccc1S2 [Example 49, (12S,15S,18S)-15-(4-Amino-butyl)-18-(3-amino-propyl)-4-chloro-12-(1H-indol-3-ylmethyl)-6-methoxy-13-methyl-2-thia-10,13,16,19-tetraaza-tricyclo[19.4.0.0*3,8*]pentacosa-1(25),3,5,7,21,23-hexaene-11,14,17-trione]	0.5 (≈ 0.681 µM)
COc1cc(C)c2c(c1)CNC(=O)[C@H](Cc1c[nH]c3ccccc13)N(C)C(=O)[C@H](CCCCN)NC(=O)[C@H](CCCN)NCc1ccccc1S2 [Example 50, (12S,15S,18S)-15-(4-Amino-butyl)-18-(3-amino-propyl)-12-(1H-indol-3-ylmethyl)-6-methoxy-4,13-dimethyl-2-thia-10,13,16,19-tetraaza-tricyclo[19.4.0.0*3,8*]pentacosa-1(25),3,5,7,21,23-hexaene-11,14,17-trione]	0.25 (≈ 0.35 µM)
Cc1cccc2c1Sc1ncccc1CN[C@@H](CCCN)C(=O)N[C@@H](CCCCN)C(=O)N(C)[C@@H](Cc1c[nH]c3ccccc13)C(=O)NC2 [Example 51, (11S,14S,17S)-14-(4-Amino-butyl)-11-(3-amino-propyl)-17-(1H-indol-3-ylmethyl)-16,25-dimethyl-2-thia-4,10,13,16,19-pentaaza-tricyclo[19.4.0.0*3,8*]pentacosa-1(25),3,5,7,21,23-hexaene-12,15,18-trione]	4 (≈ 5.84 µM)
CN1C(=O)[C@H](CCCCN)NC(=O)[C@H](CCCN)NCc2cccnc2Sc2ccc(Cl)c(F)c2CNC(=O)[C@@H]1Cc1c[nH]c2ccccc12 [Example 52, (11S,14S,17S)-14-(4-Amino-butyl)-11-(3-amino-propyl)-23-chloro-22-fluoro-17-(1H-indol-3-ylmethyl)-16-methyl-2-thia-4,10,13,16,19-pentaaza-tricyclo[19.4.0.0*3,8*]pentacosa-1(25),3(8),4,6,21,23-hexaene-12,15,18-trione]	0.5 (≈ 0.691 µM)
CN1C(=O)[C@H](CCCCN)NC(=O)[C@H](CCCN)NCc2cccnc2Sc2cccc(C(F)(F)F)c2CNC(=O)[C@@H]1Cc1c[nH]c2ccccc12 [Example 53, (11S,14S,17S)-14-(4-Amino-butyl)-11-(3-amino-propyl)-17-(1H-indol-3-ylmethyl)-16-methyl-22-trifluoromethyl-2-thia-4,10,13,16,19-pentaaza-tricyclo[19.4.0.0*3,8*]pentacosa-1(25),3,5,7,21,23-hexaene-12,15,18-trione]	1 (≈ 1.35 µM)
